pIC50: −log10 of the molar value. Structures can show the parent of a compound that is named as a salt.
Tested on: SARS-CoV-2
Experiment: microbe, parasite or virus in culture
Settings: Severe acute respiratory syndrome coronavirus 2, Vero C1008, 48 h; for IC50: read-out: pIC50 (converted)

Structure (SMILES)	pIC50	IC50 [µM]
COC(=O)/C=C/C(=O)OC [DIMETHYL FUMARATE]	< 4.70	> 20
C=C(C)[C@H]1CN[C@H](C(=O)O)[C@H]1CC(=O)O [KAINIC ACID]	< 4.70	> 20
Cn1cnc([N+](=O)[O-])c1Sc1ncnc2[nH]cnc12 [AZATHIOPRINE]	< 4.70	> 20
CCCC(=O)Nc1ncnc2c1ncn2[C@@H]1O[C@@H]2OP(=O)(O)OC[C@H]2[C@H]1OC(=O)CCC	< 4.70	> 20
Cc1ccc2c(Br)cc(Br)c(OC(=O)c3ccccc3)c2n1 [BROXALDINE]	< 4.70	> 20
CSC[C@H](NC(=O)COc1cccc2cnccc12)C(=O)N[C@@H](Cc1ccccc1)[C@H](O)C(=O)N1CSC[C@H]1C(=O)NC(C)(C)C	< 4.70	> 20
C[C@H](N)[C@H](O)c1cccc(O)c1 [METARAMINOL]	< 4.70	> 20
COc1cc(NS(C)(=O)=O)ccc1Nc1c2ccccc2nc2ccccc12 [AMSACRINE]	< 4.70	> 20
CCCCCCCCCCNCCN[C@@]1(C)C[C@H](O[C@H]2[C@H](Oc3c4cc5cc3Oc3ccc(cc3Cl)[C@H](O)[C@@H](NC(=O)[C@@H](CC(C)C)NC)C(=O)N[C@@H](CC(N)=O)C(=O)N[C@H]5C(=O)N[C@@H]3C(=O)N[C@H](C(=O)N[C@H](C(=O)O)c5cc(O)c(CNCP(=O)(O)O)c(O)c5-c5cc3ccc5O)[C@@H](O)c3ccc(c(Cl)c3)O4)O[C@H](CO)[C@@H](O)[C@@H]2O)O[C@@H](C)[C@H]1O	< 4.70	> 20
O=C(CC1NCCCC1O)Cn1cnc2cc(Br)c(Cl)cc2c1=O (stereo not given) [HALOFUGINONE]	< 4.70	> 20
Cc1ccc(-c2nc3ccc(C)cn3c2CC(=O)N(C)C)cc1 [ZOLPIDEM]	< 4.70	> 20
[2H]c1c([2H])c(-c2ccc(F)cc2F)c([2H])c(C(=O)O)c1O	< 4.70	> 20
N[C@@H](Cc1ccc(O)c(O)c1)C(=O)O [LEVODOPA]	< 4.70	> 20
Cn1ncc(-c2nc(N[C@H]3CC[C@H](N)CC3)ncc2Cl)c1CC1CC1 [BTX-A51]	< 4.70	> 20
COc1ccc2c(c1)CN(C(=O)CCN1CCC(Cc3ccccc3)CC1)CCS2	< 4.70	> 20
CC/C(=C(\c1ccccc1)c1ccc(OCCN(C)C)cc1)c1ccccc1 [TAMOXIFEN]	< 4.70	> 20
CC(O)CC(C)(C)O (stereo not given) [HEXYLENE GLYCOL]	< 4.70	> 20
CCOc1ccc(Cc2cc([C@@H]3O[C@H](SC)[C@@H](O)[C@H](O)[C@H]3O)ccc2Cl)cc1 [SOTAGLIFLOZIN]	< 4.70	> 20
Cc1ccc(Cn2c(NC3CCNCC3)nc3cccnc32)o1 [NOBERASTINE]	< 4.70	> 20
NC[C@H]1O[C@H](O[C@H]2[C@H](O)[C@@H](O[C@H]3O[C@H](CO)[C@@H](O)[C@H](N)[C@H]3O)[C@H](N)C[C@@H]2N)[C@H](O)[C@@H](O)[C@@H]1O [KANAMYCIN]	< 4.70	> 20
CO[C@H]1C[C@H](O[C@H]2[C@H](C)[C@@H](O[C@@H]3O[C@H](C)C[C@H](N(C)C)[C@H]3O)[C@@H](C)C[C@@]3(CO3)C(=O)[C@H](C)[C@@H](O)[C@@H](C)[C@@H](C)OC(=O)[C@@H]2C)O[C@@H](C)[C@@H]1O [OLEANDOMYCIN]	< 4.70	> 20
CC(CNC(=O)c1cccnc1)NC(=O)c1cccnc1 (stereo not given)	< 4.70	> 20
CCCN(CCC)c1cc(C)nc2c(-c3cnc(N(C)C)cc3C)c(C)nn12	< 4.70	> 20
C[C@@H](CO)NC(=O)[C@@H]1C=C2c3cccc4[nH]cc(c34)C[C@H]2N(C)C1 [ERGONOVINE]	< 4.70	> 20

Structure (SMILES)	pIC50	IC50 [µM]
COc1cc2c(c(OC)c1OC)-c1ccc(O)c(=O)cc1C(N)CC2 (stereo not given)	< 4.70	> 20
COc1ccc(C(=O)N2CCCC2=O)cc1	< 4.70	> 20
O=C(/C=C/c1ccc(O)c(O)c1)O[C@H](Cc1ccc(O)c(O)c1)C(=O)O [ROSMARINIC ACID]	< 4.70	> 20
NCCNCCNCCN [TRIENTINE]	< 4.70	> 20
CNC(=O)c1ccc(-c2cnc3ncc(Cc4ccc5ncccc5c4)n3n2)cc1F [CAPMATINIB]	< 4.70	> 20
Cc1ccccc1C(OCCN(C)C)c1ccccc1 (stereo not given) [ORPHENADRINE]	< 4.70	> 20
O=C(O)c1cc(O)c(O)c(O)c1 [GALLIC ACID]	< 4.70	> 20
CC(=O)C1C(=O)C=C(C)OC1=O (stereo not given) [DEHYDROACETIC ACID]	< 4.70	> 20
OC1CCCc2nc3ccccc3c(NCc3ccccc3)c21 (stereo not given) [SURONACRINE]	< 4.70	> 20
O=c1cc(-c2ccc(O)cc2)oc2cc(O)cc(O)c12 [APIGENIN]	< 4.70	> 20
CCOc1ccc(NC(=S)Nc2ccc(OCC)cc2)cc1 [ETOCARLIDE]	< 4.70	> 20
C[C@H](O)C(=O)C1=Nc2c(nc(N)[nH]c2=O)NC1 [SEPIAPTERIN]	< 4.70	> 20
OC[C@H]1O[C@@H](S[C@@H]2O[C@H](CO)[C@H](O)[C@H](n3cc(-c4cccc(F)c4)nn3)[C@H]2O)[C@H](O)[C@@H](n2cc(-c3cccc(F)c3)nn2)[C@H]1O [OLITIGALTIN]	< 4.70	> 20
CC(C)NC[C@H](O)COc1ccc(O)cc1 [PRENALTEROL]	< 4.70	> 20
CC(C)(C)NCC(O)c1ccc(O)c(CO)c1 (stereo not given) [ALBUTEROL]	< 4.70	> 20
[O-][n+]1cccc(C(Cl)=NOC[C@H](O)CN2CCCCC2)c1	< 4.70	> 20
CCCc1nc2c(C)cc(-c3nc4ccccc4n3C)cc2n1Cc1ccc(-c2ccccc2C(=O)O)cc1	< 4.70	> 20
CNCC(O)c1cccc(NS(C)(=O)=O)c1 (stereo not given) [AMIDEPHRINE MESYLATE]	< 4.70	> 20
CCCN1C[C@H](CSC)C[C@@H]2c3cccc4[nH]cc(c34)C[C@H]21 [PERGOLIDE MESYLATE]	< 4.70	> 20
CN1CCCCC1CCN1c2ccccc2Sc2ccc([S+](C)[O-])cc21 (stereo not given) [MESORIDAZINE]	< 4.70	> 20
COC(=O)c1nc2cc(Cl)c3cccnc3c2o1 [QUAZOLAST]	< 4.70	> 20
CC1=NN(c2ccccc2)C(=O)C1 [EDARAVONE]	< 4.70	> 20
C[C@@H]1CCC2[C@](C)(CO)[C@@H](O)CC[C@]2(C)[C@]12CCC(CO)(CCO)O2 (stereo not given in full)	< 4.70	> 20
CCN1CCC[C@H]1CNC(=O)c1c(O)c(Cl)cc(Cl)c1OC [RACLOPRIDE]	< 4.70	> 20

Structure (SMILES)	pIC50	IC50 [µM]
NS(=O)(=O)c1cc2c(cc1Cl)NC(C1CC3C=CC1C3)NS2(=O)=O (stereo not given) [CYCLOTHIAZIDE]	< 4.70	> 20
CC(C)NC[C@H](O)COc1ccc(CC(N)=O)cc1 [ESATENOLOL]	< 4.70	> 20
Oc1cc(O)c2c(c1)O[C@H](c1ccc(O)c(O)c1)[C@@H](O)C2 [CIANIDANOL]	< 4.70	> 20
CC(C)OC(=O)[C@H](C)N[P@](=O)(OC[C@@]1(F)O[C@@H](n2ccc(=O)[nH]c2=O)[C@](C)(O)[C@@H]1O)Oc1ccccc1 [ADAFOSBUVIR]	< 4.70	> 20
CC(C)c1ncc([N+](=O)[O-])n1C [IPRONIDAZOLE]	< 4.70	> 20
CC1(C)CC(=O)c2c(C(F)(F)F)nn(-c3ccc(C(N)=O)c(N[C@H]4CC[C@H](OC(=O)CN)CC4)c3)c2C1 [SNX 5422]	< 4.70	> 20
CC(C)C(=O)c1c(C(C)C)nn2ccccc12 [IBUDILAST]	< 4.70	> 20
CO/N=C(\C(=O)N[C@@H]1C(=O)N2C(C(=O)O)=C(COC(N)=O)CS[C@H]12)c1ccco1 [CEFUROXIME]	< 4.70	> 20
C1=N/C2=N/c3ccc(OCCN4CCCC4)c(c3)COC/C=C/COCc3cccc(c3)C(=C1)N2 [PACRITINIB]	< 4.70	> 20
CC(=O)NS(=O)(=O)c1ccc(N)cc1 [SULFACETAMIDE]	< 4.70	> 20
CCCCC[C@H](O)/C=C/[C@H]1[C@H](O)CC(=O)[C@@H]1C/C=C\CCCC(=O)O [DINOPROSTONE]	< 4.70	> 20
CC(=O)Nc1cc2ccccc2oc1=O	< 4.70	> 20
C[C@@H](NCCCCc1ccccc1)[C@@H](O)c1ccc2c(c1)CCS2	< 4.70	> 20
COCC1=C(C(=O)OC(C)OC(=O)OC(C)C)N2C(=O)[C@@H](NC(=O)/C(=N\OC)c3csc(N)n3)[C@H]2SC1 (stereo not given in full) [CEFPODOXIME PROXETIL]	< 4.70	> 20
C=CCn1c(N)cc(=O)n(CC)c1=O [AMINOMETRADINE]	< 4.70	> 20
COc1cc(NCc2ccc3nc(N)nc(N)c3c2C)cc(OC)c1OC [TRIMETREXATE]	< 4.70	> 20
C#C[C@]1(O)CC[C@H]2[C@@H]3CCC4=CC(=O)CC[C@@H]4[C@H]3CC[C@@]21C [NORETHINDRONE]	< 4.70	> 20
NC1(c2ccc(-c3nc4ccn5c(=O)[nH]nc5c4cc3-c3ccccc3)cc2)CCC1 [MK-2206]	< 4.70	> 20
CC(C(O)c1ccc(O)cc1)N1CCC(Cc2ccccc2)CC1 (stereo not given) [IFENPRODIL]	< 4.70	> 20
Cc1ccc2nc(N3CCS(=O)(=O)c4ccccc4C3)nc(NCC3(N)COC3)c2c1 [ZIRESOVIR]	< 4.70	> 20
Cc1nccn1CC1CCc2c(c3ccccc3n2C)C1=O (stereo not given) [ONDANSETRON]	< 4.70	> 20
CN[C@@H]1[C@H](O)[C@H](NC)[C@H]2O[C@@]3(O)C(=O)C[C@@H](C)O[C@H]3O[C@@H]2[C@H]1O [SPECTINOMYCIN]	< 4.70	> 20

From ChEMBL document CHEMBL4651402, “Screening of ~5500 FDA-approved drugs and clinical candidates for anti-SARS-CoV-2 activity” (2021)
